Values quoted from earlier work in patent US7985432B2, “Insect repellent” (Bioniche Life Sciences, Inc., priority 2003, dated 2011).

System: Mosquitoes

## CC1=COC(=O)C2C(C)CCC12 (stereo not shown) [Nepetalactone]
  Effectiveness at repelling mosquitoes relative to DEET: about ten times more effective at repelling mosquitoes than DEET
